Drawing on patent US6100275A, “8-azabicyclo[3.2.1.]oct-2-ene derivatives, their preparation and use” (Neurosearch A/S, priority 1995, dated 2000), this text covers ED50 and IC50 for 1 compound.

Molecules are shown by their SMILES.

The test system of test [1] is mice (immobility time, tail suspension). Nature of the test: Tail suspension test for antidepressant activity (immobility time). In kind it is in vivo, mouse (female NMRI). To be noted: Mus musculus, 0.5 h, oral, 30 min before test, 6 min observation, graphical interpolation from at least 3 doses, read-out: ED50 (dose reducing the immobility to 100 sec). How it is done:
A decrease in the immobility time by mice suspended in their tail is seen after systemic administration of central stimulants and by antidepressants (Steru, L., Chermat, R., Thierry, B. & Simon, P. (1985) The tail suspension test: A new method for screening antidepressants in mice. Psychopharmacology 85:367-370.).
Female NMRI mice (20-25 g) habituated to the room (12 hours light/dark) for at least 16 hours and housed 25 per cage are used. The mice are suspended by the tail with adhesive tape to a rod 30 cm above the lab. bench 30 min after an oral administation of vehicle or drug. For the next 6 min the accumulated duration of immobility defined as no movements by the body or extremities (however head movements are not defined as movements) are noted. Six mice per dose are used.
Saline or vehicle treated mice have immobility time scores between 160-180 sec in average. An ED50 -value is calculated by graphical interpolation from at least 3 doses as the dose reducing the immobility to 100 sec.

Test [2] deals with T1, 3H-noradrenaline (NA) uptake in hippocampal synaptosomes (Rattus norvegicus, UniProt Q63380).
T1 construct: Hippocampi from male Wistar rats (150-200 g); from tissue; host or cells: hippocampus of male Wistar rats, crude synaptosomal P2 fraction
T1 sequence (Q63380 1-617): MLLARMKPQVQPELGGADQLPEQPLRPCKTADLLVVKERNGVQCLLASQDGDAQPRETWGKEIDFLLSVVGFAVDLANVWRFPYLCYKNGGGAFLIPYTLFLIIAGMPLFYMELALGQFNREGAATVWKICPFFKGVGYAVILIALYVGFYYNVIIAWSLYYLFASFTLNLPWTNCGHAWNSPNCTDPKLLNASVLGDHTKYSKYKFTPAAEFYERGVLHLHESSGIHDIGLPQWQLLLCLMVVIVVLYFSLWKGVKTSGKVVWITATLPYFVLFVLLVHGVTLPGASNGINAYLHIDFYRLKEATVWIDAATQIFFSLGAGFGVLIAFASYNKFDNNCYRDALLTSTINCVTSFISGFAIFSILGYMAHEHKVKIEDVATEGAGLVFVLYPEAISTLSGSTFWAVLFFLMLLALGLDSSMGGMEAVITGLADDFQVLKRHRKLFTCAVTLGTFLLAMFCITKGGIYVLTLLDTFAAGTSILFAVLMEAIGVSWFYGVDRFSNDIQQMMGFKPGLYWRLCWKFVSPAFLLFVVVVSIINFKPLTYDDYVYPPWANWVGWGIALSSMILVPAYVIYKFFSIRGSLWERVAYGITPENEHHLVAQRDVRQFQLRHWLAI
Nature of the test: In vitro inhibition of 3H-noradrenaline (3H-NA) uptake in hippocampal synaptosomes. It counts as biochemical, rat (male Wistar). From the text:
(§1) Specific neurotransmitter transporters/uptake sites on nerve terminals presumably function to terminate neuronal signaling by removing the neurotransmitters dopamine, noradrenaline and serotonin, respectively, from the synaptic cleft. The activity of the transporter integral proteins can be measured in vitro by synaptosomal uptake of ^3 H-dopamine, ^3 H-noradrenaline and ^3 H-serotonine, respectively.
In vitro Inhibition of ^3 H-noradrenaline (^3 H-NA) Uptake in Hippocampal Synaptosomes
Tissue preparation: Preparations are performed at 0-4° C. unless otherwise indicated. Hippocampi from male Wistar rats (150-200 g) are homogenized for 5-10 sec in 100 volumes of ice-cold 0.32M sucrose containing 1 mM pargyline using an Ultra-Turrax homogenizer. Monoamine oxidase activity will be inhibited in the presence of pargyline. The homogenate is centrifuged at 1000×g for 10 min. […]
Assay: Aliquots of 4.0 ml tissue suspension are added to 100 μl of test solution and 100 μl of ^3 H-NA (1 nM, final concentration), mixed and incubated for 90 min at 37° C. Non-specific uptake is determined using desipramine (1 μM, final concentration). […] The amount of radioactivity on the filters is determined by conventional liquid scintillation counting. Specific uptake is calculated as the difference between total uptake and non-specific uptake. […]

The target of test [3] is T2, 3H-dopamine (DA) uptake in striatal synaptosomes (Rattus norvegicus, UniProt P23977).
T2 construct: Corpi striati from male Wistar rats (150-200 g); from tissue; host or cells: corpus striatum of male Wistar rats, crude synaptosomal P2 fraction
T2 sequence (P23977 whole entry): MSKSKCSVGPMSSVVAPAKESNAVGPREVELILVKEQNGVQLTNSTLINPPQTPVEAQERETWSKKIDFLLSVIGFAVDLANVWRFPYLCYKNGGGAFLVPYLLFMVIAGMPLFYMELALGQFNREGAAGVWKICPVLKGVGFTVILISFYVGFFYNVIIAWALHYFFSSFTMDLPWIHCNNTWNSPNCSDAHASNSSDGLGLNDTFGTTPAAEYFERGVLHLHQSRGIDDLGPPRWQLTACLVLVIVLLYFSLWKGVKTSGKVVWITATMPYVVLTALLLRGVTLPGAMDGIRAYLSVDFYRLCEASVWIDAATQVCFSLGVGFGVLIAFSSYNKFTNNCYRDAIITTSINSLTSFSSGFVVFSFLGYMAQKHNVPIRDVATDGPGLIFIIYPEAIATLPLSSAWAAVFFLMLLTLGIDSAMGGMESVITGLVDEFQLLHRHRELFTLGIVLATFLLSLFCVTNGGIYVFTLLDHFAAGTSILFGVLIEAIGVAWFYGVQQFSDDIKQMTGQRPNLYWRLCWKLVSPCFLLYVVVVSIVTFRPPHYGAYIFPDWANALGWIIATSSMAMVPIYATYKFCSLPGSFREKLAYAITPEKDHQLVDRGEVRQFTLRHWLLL
Nature of the test: In vitro inhibition of 3H-dopamine (3H-DA) uptake in striatal synaptosomes. It counts as biochemical, rat (male Wistar).
From the text: as §1
In vitro Inhibition of ^3 H-dopamine (^3 H-DA) Uptake in Striatal Synaptosomes
Tissue preparations: Preparations are performed at 0-4° C. unless otherwise indicated. Corpi striati from male Wistar rats (150-200 g) are homogenized for 5-10 sec in 100 volumes of ice-cold 0.32M sucrose containing 1 mM pargyline using an Ultra-Turrax homogenizer. Monoamine oxidase activity will be inhibited in the presence of pargyline. The homogenate is centrifuged at 1000×g for 10 min. […]
Assay: Aliquots of 4.0 ml tissue suspension are added to 100 μl of test solution and 100 μl of ^3 H-DA (1 nM, final concentration), mixed and incubated for 25 min at 37° C. Non-specific uptake is determined using benztropine (10 μM, final concentration). […] The amount of radioactivity on the filters is determined by conventional liquid scintillation counting. Specific uptake is calculated as the difference between total uptake and non-specific uptake. […]

For test [4], the target named is T3, 3H-5-hydroxytryptamine (5-HT, serotonin) uptake in cortical synaptosomes (Rattus norvegicus, UniProt P31652).
T3 construct: Cerebral cortices from male Wistar rats (150-200 g); from tissue; host or cells: cerebral cortex of male Wistar rats, crude synaptosomal P2 fraction
T3 sequence (P31652 whole entry): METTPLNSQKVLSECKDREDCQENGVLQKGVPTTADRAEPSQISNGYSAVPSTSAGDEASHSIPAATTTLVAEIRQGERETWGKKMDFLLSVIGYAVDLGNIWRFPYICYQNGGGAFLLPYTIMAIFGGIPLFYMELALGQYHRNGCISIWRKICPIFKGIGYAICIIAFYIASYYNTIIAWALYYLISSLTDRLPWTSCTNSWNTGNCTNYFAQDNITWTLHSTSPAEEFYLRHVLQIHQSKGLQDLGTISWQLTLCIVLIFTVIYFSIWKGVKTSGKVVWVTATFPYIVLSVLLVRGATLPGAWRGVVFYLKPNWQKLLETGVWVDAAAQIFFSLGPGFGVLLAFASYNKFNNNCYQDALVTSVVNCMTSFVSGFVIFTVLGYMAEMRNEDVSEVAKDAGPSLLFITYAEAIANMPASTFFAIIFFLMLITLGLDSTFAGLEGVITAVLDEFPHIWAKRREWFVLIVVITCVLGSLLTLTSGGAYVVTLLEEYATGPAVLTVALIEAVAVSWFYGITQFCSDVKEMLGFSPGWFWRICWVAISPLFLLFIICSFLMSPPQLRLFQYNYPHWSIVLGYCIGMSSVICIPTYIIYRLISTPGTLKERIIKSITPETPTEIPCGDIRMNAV
Nature of the test: In vitro inhibition of 3H-5-hydroxytryptamine (3H-5-HT, serotonin) uptake in cortical synaptosomes. It counts as biochemical, rat (male Wistar).
From the text: as §1
In vitro Inhibition of ^3 H-5-hydroxytryptamine (^3 H-5-HT, serotonin) Uptake in Cortical Synaptosomes
Tissue preparation: Preparations are performed at 0-4° C. unless otherwise indicated. Cerebral cortices from male Wistar rats (150-200 g) are homogenized for 5-10 sec in 100 volumes of ice-cold 0.32M sucrose containing 1 mM pargyline using an Ultra-Turrax homogenizer. Monoamine oxidase activity will be inhibited in the presence of pargyline. The homogenate is centrifuged at 1000×g for 10 min. […]
Assay: Aliquots of 4.0 ml tissue suspension are added to 100 μl of test solution and 100 μl of ^3 H-5-HT (1 nM, final concentration), mixed and incubated for 30 min at 37° C. Non-specific uptake is determined using citalopram (1 μM, final concentration). […] The amount of radioactivity on the filters is determined by conventional liquid scintillation counting. Specific uptake is calculated as the difference between total uptake and non-specific uptake. […]

In the case of `CN1C2C=C(c3ccc(Cl)c(Cl)c3)CC1CC2` (racemic) [(±)-3-(3,4-Dichlorophenyl)-8-methyl-8-azabicyclo[3.2.1]oct-2-ene], the median effective dose (ED50) in test [1] was 0.96 mg/kg. Also, the IC50 came to 26 nM in test [2], 79 nM in test [3] and 4.7 nM in test [4].
